This note sets out measurements from patent publication US20250011314A1, “MICROBIOCIDAL PYRAZOLE DERIVATIVES” (SYNGENTA CROP PROTECTION AG, priority 2021, published 2025).

For test [1], the system named is Mycosphaerella graminicola (Septoria tritici). In words: Mycosphaerella graminicola (Septoria tritici) / liquid culture (Septoria blotch). It is filed as cell-based. Conditions: Zymoseptoria tritici, liquid culture (PDB), 24° C., growth inhibition photometrically 4-5 days after application, read-out: control of Mycosphaerella graminicola compared to untreated control. As for the experimental part:
Example B-12: Mycosphaerella graminicola (Septoria tritici)/Liquid Culture (Septoria Blotch) Conidia of the fungus from cryogenic storage are directly mixed into nutrient broth (PDB potato dextrose broth). After placing a (DMSO) solution of test compound into a microtiter plate (96-well format), the nutrient broth containing the fungal spores is added. The test plates are incubated at 24° C. and the inhibition of growth is determined photometrically 4-5 days after application.

Test [2] concerns Glomerella lagenarium (Colletotrichum lagenarium). In words: Glomerella lagenarium (Colletotrichum lagenarium) / liquid culture (anthracnose). Conditions: Colletotrichum orbiculare, liquid culture (PDB), 24° C., growth inhibition photometrically 3-4 days after application, read-out: control of Glomerella lagenarium compared to untreated control. It is filed as cell-based. The protocol:
Example B-3: Glomerella lagenarium (Colletotrichum lagenarium)/Liquid Culture (Anthracnose) Conidia of the fungus from cryogenic storage are directly mixed into nutrient broth (PDB potato dextrose broth). After placing a (DMSO) solution of test compound into a microtiter plate (96-well format), the nutrient broth containing the fungal spores is added. The test plates are incubated at 24° C. and the inhibition of growth is measured photometrically 3-4 days after application.

Test [3] concerns Monographella nivalis (Microdochium nivale). In words: Monographella nivalis (Microdochium nivale) / liquid culture (foot rot cereals). In kind it is cell-based. Conditions: liquid culture (PDB), 24° C., growth inhibition photometrically 4-5 days after application, read-out: control of Monographella nivalis compared to untreated control. As for the experimental part:
Example B-7: Monographella Nivalis (Microdochium nivale)/Liquid Culture (Foot Rot Cereals) Conidia of the fungus from cryogenic storage are directly mixed into nutrient broth (PDB potato dextrose broth). After placing a (DMSO) solution of test compound into a microtiter plate (96-well format), the nutrient broth containing the fungal spores is added. The test plates are incubated at 24° C. and the inhibition of growth is determined photometrically 4-5 days after application.

Test [4] concerns Magnaporthe grisea (Pyricularia oryzae). It is filed as in vivo. The conditions noted are these: 200 ppm; rice leaf segments cv. Ballila; inoculated 2 days after application; assessed 5-7 days after application.

As for `Cn1cc(C(C)(CNC(=O)c2cc(-c3ccc(F)cc3F)on2)c2nc(Cl)cs2)cn1` (racemic) [Compound P-4, N-[2-(4-chlorothiazol-2-yl)-2-(1-methylpyrazol-4-yl)propyl]-5-(2,4-difluorophenyl)isoxazole-3-carboxamide], the inhibition of growth at 20 ppm in test [1], in test [2] and in test [3] was not below 80% throughout.

In the case of `Cn1cc(C(C)(CNC(=O)c2cc(-c3ccc(F)cc3F)on2)c2nc(C(F)(F)F)cs2)cn1` (stereo not shown) [Compound P-9, 5-(2,4-difluorophenyl)-N-[2-(1-methylpyrazol-4-yl)-2-[4-(trifluoromethyl)thiazol-2-yl]propyl]isoxazole-3-carboxamide], the inhibition of growth at 20 ppm in test [1], in test [2] and in test [3] was not below 80% throughout.

Take `Cn1cc(C(C)(CNC(=O)c2cc(-c3ccc(F)cc3F)on2)c2ncc(Br)s2)cn1` (stereo not shown) [Compound P-7, N-[2-(5-bromothiazol-2-yl)-2-(1-methylpyrazol-4-yl)propyl]-5-(2,4-difluorophenyl) isoxazole-3-carboxamide]: the inhibition of growth at 20 ppm in test [1], in test [2] and in test [3] was not below 80% throughout.

In the case of `Cn1cc(C(C)(CNC(=O)c2cc(-c3ccc(F)cc3F)on2)c2nc(C3CC3)cs2)cn1` (stereo not shown) [Compound P-11, N-[2-(4-cyclopropylthiazol-2-yl)-2-(1-methylpyrazol-4-yl)propyl]-5-(2,4-difluorophenyl) isoxazole-3-carboxamide], the inhibition of growth at 20 ppm in test [1], in test [2] and in test [3] was not below 80% throughout.

With `Cn1cc(C(C)(CNC(=O)c2cc(-c3ccc(F)cc3F)on2)c2nc(Cl)cs2)cn1` (single isomer, unassigned) [Compound P-5, N-[2-(4-chlorothiazol-2-yl)-2-(1-methylpyrazol-4-yl)propyl]-5-(2,4-difluorophenyl) isoxazole-3-carboxamide], the inhibition of growth at 20 ppm in test [1], in test [2] and in test [3] was not below 80% throughout.

As for `Cn1cc(C(C)(CNC(=O)c2cc(-c3ccc(F)cc3F)on2)c2nc(Cl)c(Cl)s2)cn1` (stereo not shown) [Compound P-3, N-[2-(4,5-dichlorothiazol-2-yl)-2-(1-methylpyrazol-4-yl)propyl]-5-(2,4-difluorophenyl)isoxazole-3-carboxamide], the inhibition of growth at 20 ppm in test [1], in test [2] and in test [3] was not below 80% throughout.

Regarding `Cn1cc(C(C)(CNC(=O)c2cc(-c3ccc(F)cc3F)on2)c2ccn(C)n2)cn1` (stereo not shown) [Compound P-1, 5-(2,4-difluorophenyl)-N-[2-(1-methylpyrazol-3-yl)-2-(1-methylpyrazol-4-yl)propyl]isoxazole-3-carboxamide], the “control of Magnaporthe grisea compared to untreated control” value in test [4] was “at least 80%”. The inhibition of growth at 20 ppm in test [1], in test [2] and in test [3] was not below 80% each time.

Consider `Cn1cc(C(C)(CNC(=O)c2cc(-c3ccc(F)cc3F)on2)c2csc(Br)n2)cn1` (stereo not shown) [Compound P-10, N-[2-(2-bromothiazol-4-yl)-2-(1-methylpyrazol-4-yl)propyl]-5-(2,4-difluorophenyl) isoxazole-3-carboxamide], for which the inhibition of growth at 20 ppm in test [1], in test [2] and in test [3] was not below 80% in each case.

Regarding `Cn1cc(C(C)(CNC(=O)c2cc(-c3ccc(F)cc3F)on2)c2nc(Br)cs2)cn1` (stereo not shown) [Compound P-8, N-[2-(4-bromothiazol-2-yl)-2-(1-methylpyrazol-4-yl)propyl]-5-(2,4-difluorophenyl) isoxazole-3-carboxamide], the inhibition of growth at 20 ppm in test [1], in test [2] and in test [3] was not below 80% in each case.

Regarding `Cn1cc(C(C)(CNC(=O)c2cc(-c3ccc(F)cc3F)on2)c2nccs2)cn1` (stereo not shown) [Compound P-2, 5-(2,4-difluorophenyl)-N-[2-(1-methylpyrazol-4-yl)-2-thiazol-2-yl-propyl]isoxazole-3-carboxamide], the inhibition of growth at 20 ppm in test [1], in test [2] and in test [3] was not below 80% each time.
